The test system of series [1] is hUC-MSCs. Put plainly: Culture of hUC-MSCs plated after 72 h cryopreservation (cell status by light microscopy, cell number after 3 days). Conditions: hUC-MSCs after 72 h cryopreservation in Hibernate-A plus metabolite, 37° C., FIG. 3. It counts as cell-based, human. The source says:
(§1) Cells used in this experiment were: hUC-MSCs (donated umbilical cord tissues from the Biotherapy Center of the Third Affiliated Hospital of Sun Yat-sen University and newborns).
(§2) The number of cells used in this experiment was: 1×10^6 cells.
(§3) The basic cryopreservation solution used in this experiment was Hibernate™-A medium (Thermofisher, catalog number: GIBCO A1247501), and the components were shown in Table 1.
(§4) The experimental groups of this example included: Hibernate™-A, Hibernate™-A+TUDCA, Hibernate™-A+QCA, and Hibernate™-A+Phosphocholine.
(§5) The experimental operation of this example included: 1 mL of the resuspended hUC-MSCs cells in Hibernate™-A basic cryopreservation solution with the above-mentioned specified metabolites added were placed in a 5 mL EP tube, allowed to stand at room temperature for 20 min, and then placed in a 4° C. refrigerator shaker for slow shaking to allow cryopreservation for 72 h. After cryopreservation for 72 h, the cells were centrifuged and counted with trypan blue to calculate the cell survival rate, and then plated on a 96-well plates for CCK8 cell proliferation assay. The remaining cells were continued to be plated on a 6-well plate and placed in a 37° C. cell culture incubator to observe the subsequent cell status.

For series [2], the system named is hUC-MSCs. Put plainly: Immediate cell survival rate of hUC-MSCs by trypan blue counting after 72 h cryopreservation at 4° C. Type of series: cell-based, human. Conditions: metabolite added to Hibernate-A basic cryopreservation solution, FIG. 3.
Description: as §1, §2, §3, §4, §5

In a further series the test system is Hepatocytes. Put plainly: Cryopreservation and rewarming of hepatocytes (MitoNeoD mitochondrial ROS, real-time imaging of cell membrane integrity). Type of series: cell-based. Conditions: UW solution with 50 μM phosphocholine, 4° C. 12 h, rewarming medium with 500 μM phosphocholine, 37° C. 2 h, FIGS. 7A-7B. How it is done: Hepatocytes cultured under normal conditions served as a 37° C. control. For cold exposure treatment, the medium was replaced with UW solution at room temperature for 15 min, and the cells in UW solution (containing 50 μM phosphocholine) were transferred to a 4° C. refrigerator for 12 h. Rewarming involved taking cells out of the refrigerator and culturing with a pre-chilled medium (containing 500 μM phosphocholine). After allowing to stand for 15 min at room temperature, the cells were transferred to a 37° C. incubator for 2 h. The integrity of cell membranes is dynamically monitored by Real-time imaging using MitoNeoD live cell dye to assess the mitochondrial ROS and transfection of a plasmid carrying the mNeonGreen tag and the phospholipase Cδ PH domain.

The subject of a further series is rat liver. Put plainly: Static cold storage and rewarming/reperfusion of isolated rat liver (H&E sectioning, TUNEL staining). Conditions: phosphocholine supplemented during rewarming/reperfusion, 4° C. 48 h, perfused 37° C. 2 h, FIGS. 8A-8C. How it is done:
2-3 month old male/female SD rats or 2-3 month old golden hamsters were fasted overnight and anesthetized by inhalation of isoflurane, and then given 50 IU of heparin. The bile duct was cannulated with a PE-10 catheter, and the portal vein was cannulated with a 22-G Introcan catheter. The liver was washed with physiological saline, UW, or UW supplemented with phosphocholine (50 μM) and collected. A perfusion system was established in a circulation mode, and 250 mL of a Krebs-Henseleit (KH) bicarbonate buffer or KH buffer supplemented with phosphocholine (500 μM) was prepared. Oxygenation was conducted in a mixed gas of 95% O2 and 5% CO2 through a fiber oxygenator to a partial pressure of oxygen exceeding 500 mmHg. The liver was stored at 4° C. for 48 h, equilibrated at room temperature for 10 min, and perfused at 37° C. for 2 h. A flow rate was set in pressure control mode, and a portal vein pressure (PVP) was kept constant at 12 mmHg. The flow rate and PVP were automatically monitored and recorded. The portal vein resistance (PVR) was calculated as follows: PVR (mmHg/mL×min×g liver)=PVP (12 mmHg)/portal vein flow rate (mLxminxg liver). Liver samples were fixated in 4% paraformaldehyde for subsequent H&E sectioning and TUNEL staining. […]

Turning to `O=C(O)c1ccnc2ccccc12` [QCA, quinoline-4-carboxylic acid], the “total number of cells obtained after being plated and cultured for 3 days versus basic cryopreservation solution control” value with hUC-MSCs [1] is “significantly more”. Further, the “immediate cell survival rate versus basic cryopreservation solution control” value in the series with hUC-MSCs [2] is recorded as “slightly lower”.

`C[C@H](CCC(=O)NCCS(=O)(=O)[O-])[C@H]1CC[C@H]2[C@@H]3[C@@H](O)C[C@@H]4C[C@H](O)CC[C@]4(C)[C@H]3CC[C@]12C.[Na+]` [TUDCA, sodium tauroursodeoxycholate]: in the series with hUC-MSCs [1], the “total number of cells obtained after being plated and cultured for 3 days versus basic cryopreservation solution control” value is “significantly more”. Besides, the “immediate cell survival rate versus basic cryopreservation solution control” value in the series on hUC-MSCs [2] is “significantly higher”.

As for `C[N+](C)(C)CCOP(=O)([O-])O` [phosphocholine], the “total number of cells obtained after being plated and cultured for 3 days versus basic cryopreservation solution control” value with hUC-MSCs [1] is “significantly more”. In the series on Hepatocytes (MitoNeoD), the “ROS in hepatocyte mitochondria” value was “reduce”. In addition, in the series with Hepatocytes (mNeonGreen-PLCδ PH domain imaging), the “integrity of hepatocyte membrane” value is given as “maintain the integrity”. In the series with hUC-MSCs [2], the “immediate cell survival rate versus basic cryopreservation solution control” value is on record as “slightly lower”. Also, in the series on rat liver, the “cell apoptosis versus control group (TUNEL staining)” value was “milder” and the “sinus cavity (H&E sections)” value was “apparently normal”.

These data come from US20250160318A1, “CRYOPRESERVATION SOLUTION AND USE THEREOF IN REDUCING ISCHEMIA-REPERFUSION INJURY (IRI) OF CELL, TISSUE, OR ORGAN” (Third Affiliated Hospital, Sun Yat-sen University, priority 2023, published 2025).
